Where two headings read alike, the source gives them in different places.
Tests used:
corn = conditions: GSH 100 mg/L seed treatment; petriplates, dark, 24° C., 7 days
Method: Instead of growing the seeds in a greenhouse, the seeds were grown in […] polystyrene petriplates (Fisherband) on 5⅜″ germination paper circle (Anchor Paper Co., Saint Paul, Mn) moistened with 12 ml distilled water. Four petriplates were prepared per treatment as 4 replicates. Petri plates were then placed in the dark in under-counter cabinets in the lab at 24° C. for 7 days. After 7 days, seedlings were removed from the cabinets, exposed to light, and their main roots severed and measured for various root parameters with WinRhizo root scanner (Regent Instruments Inc., WinRhizo Pro 2007). For all statistical analysis, student t-test was applied using JMPv.9 statistical software.

chickpea = chickpea roots; seed treatment; petriplates, dark, 24° C., 7 days
Method: (§1) Seeds of chickpea, cotton, pinto bean and soybean were treated according to the protocols of Example 1. One day after seed treatment, 10 seeds of each crop variety were plated in 150 mm×15 mm polystyrene petriplates (Fisherband) on 5⅜″ germination paper circle (Anchor Paper Co., Saint Paul, Mn) moistened with 12 ml distilled water. Four petriplates were prepared per treatment as 4 replicates. Petri plates were then placed in the dark in under-counter cabinets in the lab at 24° C. for 7 days. After 7 days, seedlings were removed from the cabinets, exposed to light, and their main roots severed and measured for various root parameters with WinRhizo root scanner (Regent Instruments Inc., WinRhizo Pro 2007). For all statistical analysis, student t-test was applied using JMPv.9 statistical software.

soybean = soybean roots; seed treatment; petriplates, dark, 24° C., 7 days
Method: as §1

corn seedling growth [1] = assay: Effect of GSH and LCO on corn seedling growth (greenhouse pots, WinRhizo); format: in vivo; conditions: seed treatment (LCO 10^−8M), harvested after 2 weeks
Method: LCO stock solution was prepared by dissolving LCO in 50:50 ethanol/water solvent. Seeds were then treated according to the protocols of Example 1. Seeds were planted 1 day after treatment in greenhouse under artificial lighting in 5'' plastic pots containing 1:1 sand/perlite mix. […] Plants were allowed to grow for 2 weeks and then harvested. A non-destructive harvest was made by washing sand/perlite soil mix under running tap water. After cleaning, each plant was placed on a clear plexiglass-tray containing enough water to spread the roots in liquid. The tray was then placed on the WinRhizo root scanner (Regent Instruments Inc., WinRhizo Pro 2007) for measurement.

corn seedling growth [2] = conditions: for Plant root dry weight / Plant shoot dry weight / Total plant dry weight / Chlorophyll content: 2 weeks after; for Chlorophyll content: SPAD chlorophyll meter; for Plant height: one wk after (8 days after planting)
Method: In a clear plastic bag (25 cm×25 cm), 100 gram seeds were treated with 1 ml of water (as control) and 1 mL of the 100, 200, and 500 mg/L treatment solutions separately and shaken vigorously. One day following treatment, seeds were planted in 6″ plastic pots containing sand:perlite 1:1 mix. There were 10 pots/treatment; each pot being a replicate. Plant height was measured 8 days after planting. Plant leaf greenness and final harvest were made 2 weeks after planting. Plant leaf greenness was measured using a SPAD chlorophyll meter (Spectrum Technology, USA).

SMILES: N[C@@H](CCC(=O)N[C@@H](CS)C(=O)NCC(=O)O)C(=O)O [GSH, glutathione]
- Length, Total (corn): 21.890a* cm
- Volume, Total (corn): 0.150a* cm^3
- Length (chickpea): 94.671a cm
- Surface area (chickpea): 23.142a cm^2
- Length (soybean): 146.373a cm
- Surface area (soybean): 25.691a cm^2
- Coleoptile Length (corn seedling growth [1]): 9.814b cm
- Coleoptile Surface area (corn seedling growth [1]): 1.789b cm^2
- Coleoptile Volume (corn seedling growth [1]): 0.236b cm^2
- Root Diameter (corn seedling growth [1]): 0.653a mm
- Root Length (corn seedling growth [1]): 150.89a cm
- Root Surface area (corn seedling growth [1]): 30.47a cm^2
- Root Volume (corn seedling growth [1]): 0.494a cm^2
- Plant root dry weight (corn seedling growth [2]; GSH 100 mg/L seed treatment): 0.244a mg
- Plant shoot dry weight (corn seedling growth [2]; GSH 100 mg/L seed treatment): 0.3111ab mg
- Total plant dry weight (corn seedling growth [2]; GSH 100 mg/L seed treatment): 0.555a mg
- Chlorophyll content (corn seedling growth [2]; GSH 100 mg/L seed treatment): 27.93a
- Plant height (corn seedling growth [2]; GSH 100 mg/L seed treatment): 12.07a cm
- Plant root dry weight (corn seedling growth [2]; GSH 200 mg/L seed treatment): 0.231ab mg
- Plant shoot dry weight (corn seedling growth [2]; GSH 200 mg/L seed treatment): 0.3116ab mg
- Total plant dry weight (corn seedling growth [2]; GSH 200 mg/L seed treatment): 0.542a mg
- Chlorophyll content (corn seedling growth [2]; GSH 200 mg/L seed treatment): 27.55a
- Plant height (corn seedling growth [2]; GSH 200 mg/L seed treatment): 11.91a cm
- Plant root dry weight (corn seedling growth [2]; GSH 500 mg/L seed treatment): 0.266b mg
- Plant shoot dry weight (corn seedling growth [2]; GSH 500 mg/L seed treatment): 0.339a mg
- Total plant dry weight (corn seedling growth [2]; GSH 500 mg/L seed treatment): 0.565a mg
- Chlorophyll content (corn seedling growth [2]; GSH 500 mg/L seed treatment): 27.83a
- Plant height (corn seedling growth [2]; GSH 500 mg/L seed treatment): 11.66ab cm
